The text below walks through data of publication PMC9623087, “Bioaffinity ultrafiltration coupled with HPLC-ESI-MS/MS for screening potential α-glucosidase inhibitors from pomegranate peel” (Frontiers in Nutrition, 2022).

Assay [1] has as its target T1, α-glucosidase (Saccharomyces cerevisiae, UniProt P53341). Kind of assay: α-glucosidase inhibition assay (pNPG, absorbance at 405 nm). The following applies: 0.1 mg/mL and 0.5 mg/mL, Figure 1. The assay is classed as biochemical. The procedure:
Different concentrations (0.01, 0.1, 1, 5, and 10 mg/mL) of Pop extract samples, PBS (pH = 6.8), and α-glucosidase (5 U/mL) were mixed together with equal volumes and co-incubated at 37°C for 15 min. 20 μL pNPG (3 mM) was added to incubate for another 10 min and 150 μL Na2CO3 (0.1 mol/L) was used to stop the reaction. […] Meanwhile, the blank group without samples were simultaneously carried out and the inhibition ratios were calculated ([21], [22]).
For identified compounds, two concentrations (0.1 mg/mL and 0.5 mg/mL) of each inhibitor were prepared and added to PBS (pH = 6.8) and α-glucosidase (5 U/mL) with equal volumes. After that, 20 μL pNPG (3 mM) was added to initiate the reactions and the changes of absorbance were recorded every 20 s immediately.

Assay [2] has as its target T1, α-glucosidase. Kind of assay: Circular dichroism spectra, secondary structure contents of α-glucosidase. The following applies: EA 2 mg/mL, α-glucosidase 5.0 U/mL. As for the experimental part: The analysis of CD spectrum was performed according to the previous report with some modifications ([26]). Briefly, both α-glucosidase and EA were dissolved in PBS (pH = 6.8). […] The spectrum scanning range was 200–250 nm, the response time and scanning speed were 1 s and […], respectively.
In general terms: CD spectra are sensitive to the conformation of chiral molecules.

Assay [3] concerns the target T1, α-glucosidase. Kind of assay: Fluorescence quenching of α-glucosidase by EA (Stern–Volmer, binding and thermodynamic analysis). The procedure:
The fluorescence spectra of α-glucosidase with or without EA were measured at three different temperatures (298, 304, and 310 K) according to the previous study ([21]). Exactly, 2.5 mL α-glucosidase (15 U/mL) was titrated by continuous additions of EA (5 μL each time) to reach a final concentration range from 0 to 19.89 × 10^–6 mol/L. After 5 min of equilibration under different temperatures, the steady fluorescence emission spectra were recorded from 300 to 460 nm with an excitation wavelength of 280 nm. Additionally, the fluorescence of free EA was measured as the background. According to fluorescence spectra data, the quenching constant (Ksv), binding constant (Ka), number of binding sites (n), the binding constant of accessible fluorophores, and the values of free energy change (△G^0), △H^0 and △S^0 were calculated according the previous reports ([21], [22], [25]).
To further exploit the quenching mechanism, Ksv was calculated by Stern–Volmer equation to determine the quench type, dynamic quenching or static quenching:
(1) F0/F=1+KSV[Q]=1+Kqτ0[Q]
where F0 and F are the peak of fluorescence intensities of α-glucosidase […], respectively; Ksv is the dynamic quenching constant; Kq is the quenching rate constant; [Q] is the different concentrations of EA; τ0 is the average lifetime of fluorescence with the value of 10^–8 s.
For static quenching, the equation as follow was employed to calculate binding constant (Ka) and number of binding sites (n) between EA and α-glucosidase:
(2) lgF0-F/F=lgKa+nlg[Q]
Thermodynamic analysis was performed to further determine the binding forces between EA and α-glucosidase, and the relevant thermodynamic parameters, including△G^0,△H^0, and △S^0, were calculated by the two following equations: […]

In assay [4] the target is T1, α-glucosidase. Kind of assay: Kinetic analysis: Lineweaver–Burk plot and inhibitory reversibility. The assay is classed as biochemical. As for the experimental part:
Lineweaver–Burk plot was employed to determine the inhibitory type of EA against α-glucosidase ([23]). Briefly, 20 μL α-glucosidase (5 U/mL) was mixed with different concentrations (0, 10, 15, 20, 30 μg/mL) of EA and incubated at 37°C for 15 min. pNPG (1.0, 2.0, 4.0, and 8.0 × 10^–3 mol/L) was added to initiate the reaction and the changes of absorbance were recorded every 60 s immediately. The double-reciprocal plots of reaction velocity (υ) against different concentration of pNPG (1/υ vs. 1/[pNPG]) were analyzed using the Lineweaver–Burk plot to determine inhibition constant (Ki).
To determine the inhibitory reversibility of EA against α-glucosidase, different concentrations (0, 20, 40, 60, and 100 μg/mL) of EA were reacted with the range of 7.5–1 U/mL α-glucosidase, the absorbance was recorded every 60 s immediately after the pNPG (3 mM) was added ([24]).

A further assay relates to Kunming mice. Description: Sucrose-loading test, postprandial blood glucose. The assay is classed as in vivo. The following applies: gavage, 0-120 min. As for the experimental part: Kunming mice (male, 35–40 g) were gained from Xi’an Jiaotong University (Xi’an, China). […] After gavage, the blood glucose levels were measured at 0, 15, 30, 45, 60, 90, and 120 min by glucose detection kit (Robio Co., Shanghai, China). The whole process conformed to the Guide for the Care and Use of Laboratory Animals, eighth edition (ISBN 10: 0-309-15396-4) ([22]).

Assay [5] concerns the target T1, α-glucosidase. Also noted: method as in PMID 20232167. As to conditions: EA isolated and identified from Rosa gallica; cited from earlier work.
Assay [6] has as its target T1, α-glucosidase. Description: Atomic force microscopy of α-glucosidase with EA. As to conditions: EA 40 μg/mL, α-glucosidase 2.0 U/mL, co-incubation 30 min.

Bounds are passed on as bounds.

T1 sequence (P53341 whole entry): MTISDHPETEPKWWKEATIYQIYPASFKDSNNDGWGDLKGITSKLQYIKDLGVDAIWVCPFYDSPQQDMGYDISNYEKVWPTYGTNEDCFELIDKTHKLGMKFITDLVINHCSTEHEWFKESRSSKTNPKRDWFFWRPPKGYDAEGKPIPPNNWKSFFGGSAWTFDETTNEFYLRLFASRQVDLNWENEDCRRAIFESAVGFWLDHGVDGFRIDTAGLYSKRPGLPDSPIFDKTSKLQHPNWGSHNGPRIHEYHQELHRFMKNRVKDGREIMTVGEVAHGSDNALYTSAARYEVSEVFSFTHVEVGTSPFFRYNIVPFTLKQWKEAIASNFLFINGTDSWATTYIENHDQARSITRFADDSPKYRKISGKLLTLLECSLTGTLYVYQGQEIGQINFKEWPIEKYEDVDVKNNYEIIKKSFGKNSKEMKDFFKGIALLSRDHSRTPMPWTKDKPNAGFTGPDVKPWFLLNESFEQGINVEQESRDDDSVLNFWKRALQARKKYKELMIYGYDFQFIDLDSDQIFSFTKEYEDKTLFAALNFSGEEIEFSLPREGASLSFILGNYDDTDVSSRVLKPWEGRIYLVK

On to `O=c1c(O)c(-c2ccc(O)cc2)oc2cc(O)cc(O)c12` [kaempferol, Kaempferol], for which the “α-glucosidase inhibitory activity of identified compounds (in words)” value (“α-glucosidase inhibitory activity” below) at α-glucosidase [1] is “strong activity”.
With `O=c1oc2c(O)c(O)cc3c(=O)oc4c(O)c(O)cc1c4c23` [EA, Ellagic acid], on α-glucosidase [2] (VEA:Vα–glucosidase 25:200), the “Random coil content of α-glucosidase” value stood at 28.43 ± 0.21%, the “α–helix content of α-glucosidase” value came to 29.53 ± 0.29%, the “β–sheet content of α-glucosidase” value is listed as 23.73 ± 0.21% and the “β–turn content of α-glucosidase” value amounted to 18.07 ± 0.21%. Besides, at α-glucosidase [2] (VEA:Vα–glucosidase 50:200), the “Random coil content of α-glucosidase” value is 30.47 ± 0.33%, the “α–helix content of α-glucosidase” value is 28.17 ± 0.21%, the “β–sheet content of α-glucosidase” value is 26.60 ± 0.22% and the “β–turn content of α-glucosidase” value is recorded as 18.57 ± 0.29%. For the same molecule, at α-glucosidase [2] (VEA:Vα–glucosidase 100:200), the “Random coil content of α-glucosidase” value is 32.87 ± 0.33%, the “α–helix content of α-glucosidase” value worked out at 24.83 ± 0.29%, the “β–sheet content of α-glucosidase” value is 31.00 ± 0.54% and the “β–turn content of α-glucosidase” value turned out to be 18.70 ± 0.33%. Moreover, the fluorescence quenching mechanism entry on α-glucosidase [3] was “static quenching mechanism”. Besides, at α-glucosidase [3] (298 K), the “Ksv (quenching constant)” value is reported as 4.75 ± 0.01 ×10^5 L/mol, the “n (number of binding sites)” value is 0.87 and the “ΔG^0” value was -5.533 ± 0.0072 kcal/mol. On α-glucosidase [3] (304 K), the “Ksv (quenching constant)” value is given as 4.05 ± 0.03 ×10^5 L/mol, the “n (number of binding sites)” value came to 0.83 and the “ΔG^0” value was -5.33 ± 0.014 kcal/mol. For the same molecule, on α-glucosidase [3] (310 K), the “Ksv (quenching constant)” value was 3.32 ± 0.01 ×10^5 L/mol, the “n (number of binding sites)” value is listed as 0.86 and the “ΔG^0” value was -5.048 ± 0.012 kcal/mol. In addition, on α-glucosidase [3] (at each temperature (298, 304, 310 K)), the “Kq (quenching rate constant)” value is listed as > 2.0 × 10^10 L/mol⋅s. In addition, on α-glucosidase [3] (from 298, 304 and 310 K), the “ΔH^0” value was -17.58 ± 0.086 kcal/mol and the “ΔS^0” value is given as −169.14 ± 0.33 J/mol⋅K. The inhibitory type result against α-glucosidase [4] (Lineweaver–Burk plot, lines intersect on Y axis) is given as “competitive”. For the same molecule, the inhibitory reversibility entry against α-glucosidase [4] (υ vs. [α-glucosidase], EA 0-100 μg/mL) is on record as “reversible”. Moreover, the “reduction of AUC of blood glucose” value in the assay with Kunming mice (sucrose 2 g/kg + EA 25 mg/kg) turned out to be 31.8%. For the same molecule, the “α-glucosidase inhibition (in words)” value on α-glucosidase [5] is on record as “almost no α-glucosidase inhibition”. At α-glucosidase [1], the “α-glucosidase inhibitory activity” value was “strongest activity”. For the same molecule, the “effect on α-glucosidase molecules observed by AFM (in words)” value on α-glucosidase [6] is “aggregated together and formed irregular polymers”.
`Oc1ccc(/C=C/c2cc(O)cc(O)c2)cc1` [resveratrol, Resveratrol]: the “α-glucosidase inhibitory activity” value on α-glucosidase [1] was “strong inhibitory activity”.
For `C[C@H]1O[C@H](O[C@H]2[C@H](O)[C@@H](O)[C@@H](O[C@H]3[C@H](O)[C@@H](O)C(O)O[C@@H]3CO)O[C@@H]2CO)[C@H](O)[C@@H](O)[C@@H]1N[C@H]1C=C(CO)[C@@H](O)[C@H](O)[C@H]1O` (some centres unmarked) [acarbose, Acarbose, reference compound], the “reduction of AUC of blood glucose” value with Kunming mice (sucrose 2 g/kg + acarbose 50 mg/kg) is on record as 36.4%.
As for `O=C(O)c1cc(O)c(O)c(O)c1` [gallic acid, Gallic acid], the “α-glucosidase inhibitory activity” value at α-glucosidase [1] is reported as “strong activity”.
